According to publication PMC8395040 (International Journal of Molecular Sciences, 2021):
Read-outs that look alike come from different tables or passages of the source.

Key:
HCT116 = assay: MTT cytotoxicity assay, HCT116; assay type: cell-based; conditions: Homo sapiens; for cytotoxicity at 50 µM: read-out: % Cytotoxicity (50 µM) HCT116; for IC50: 0.05–50 µM
Experimental: (§1) Cytotoxicity assays were performed by using the MTT reduction method as described previously. Briefly, cancer cell lines were plated in flat-bottom 96-well plates at a cell concentration of 5 × 10^3 cells/well for the fastest growing lines, such as HEK293 and HT29 cells and 1 × 10^4 cells/well for more slowly growing lines, such as HCT116, H1975, BxPC-3, AsPC-1, B16-F10 and DAOY. Then, cells were incubated with the synthesised compounds at different concentrations (from 0.05 to 50 µM) in 200 µL with 10% FBS in RPMI 1640 or DMEM F12 culture medium at 37 °C for 72 h. Later, 10 µL of MTT were added at a final concentration of 0.5 mg/mL, incubated at 37 °C for 4 h, and then solubilised with 10% sodium dodecyl sulphate (SDS) in 0.1 mM HCl and incubated overnight at 37 °C. Formazan formation was measured at 570 nm in a multiwell plate reader (Cytation 5, Biotek Instruments, Winooski, VT, USA). Three independent biological replicates were performed.

HT29 = assay: MTT cytotoxicity assay, HT29; assay type: cell-based; conditions: Homo sapiens; for cytotoxicity at 50 µM: read-out: % Cytotoxicity (50 µM) HT29; for IC50: 0.05–50 µM
Experimental: as §1

Daoy = assay: MTT cytotoxicity assay, Daoy; assay type: cell-based, human; conditions: Homo sapiens, Daoy, 72 h; for IC50: 0.05–50 µM; for cytotoxicity at 50 µM: read-out: % Cytotoxicity (50 µM) DAOY;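 as to all read-outs here: viability read as formazan absorbance at 570 nm after MTT reduction, three independent biological replicates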
H1975 = assay: MTT cytotoxicity assay, H1975; assay type: cell-based; conditions: Homo sapiens; for cytotoxicity at 50 µM: read-out: % Cytotoxicity (50 µM) H1975; for IC50: 0.05–50 µM
Experimental: as §1

AsPC-1 = assay: MTT cytotoxicity assay, AsPC-1; assay type: cell-based; conditions: Homo sapiens, ASPC1, 72 h, 0.05–50 µM
Experimental: as §1

BxPC-3 = assay: MTT cytotoxicity assay, BxPC-3; assay type: cell-based; conditions: Homo sapiens, 72 h, 0.05–50 µM
Experimental: as §1

[1] = MTT cytotoxicity assay, HEK293 control cells; assay type: cell-based, human; conditions: human, HEK293 cells; 50 µM, 72 h, MTT;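 also: Read-out is formazan absorbance at 570 nm from MTT reduction in 96-well plates, with three independent biological replicates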
HEK293 = assay: MTT cytotoxicity assay, HEK293 control cells; assay type: cell-based, human; conditions: Homo sapiens, HEK293; MTT, 72 h, non-cancer cell line;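 also: Read-out is formazan absorbance at 570 nm from MTT reduction in 96-well plates, with three independent biological replicates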
GLI-luciferase reporter = target: GLI-luciferase reporter; parameters: method as in PMID 24923765; conditions: cited from earlier work
tumour cell lines = assay: MTT cytotoxicity assay, summary over the tumour cell line panel; assay type: cell-based, human; conditions: 50 µM, 72 h, MTT, tumour cell lines tested
Experimental: as §1

| Compound | cytotoxicity at 50 µM (HCT116; HCT-116, 72 h) [%] | IC50 (HCT116; HCT-116, MTT, 72 h) [µM] | cytotoxicity at 50 µM (HT29; HT-29, 72 h) [%] | IC50 (HT29; HT-29, MTT, 72 h) [µM] | IC50 (Daoy; MTT) [µM] | cytotoxicity at 50 µM (Daoy) [%] | cytotoxicity at 50 µM (H1975; NCI-H1975, 72 h) [%] | IC50 (H1975; NCI-H1975, MTT, 72 h) [µM] | IC50 (AsPC-1) [µM] | IC50 (BxPC-3) [µM] | cytotoxicity at 72 h, 50 µM [1] [%] | IC50 (HEK293) [µM] | melting point [°C] | IC50 in GLI-luciferase reporter assays (GLI-luciferase reporter) | cytotoxicity at 50 µM (HCT116; HCT-116, 50 µM, 72 h, MTT) [%] | cytotoxicity at 50 µM (HT29; HT-29, 50 µM, 72 h, MTT) [%] | cytotoxicity at 50 µM (Daoy; 50 µM, MTT) [%] | cytotoxicity at 50 µM (H1975; NCI-H1975, 50 µM, 72 h, MTT) [%] | cytotoxicity in tumour cell lines (tumour cell lines) |
| --- | --- | --- | --- | --- | --- | --- | --- | --- | --- | --- | --- | --- | --- | --- | --- | --- | --- | --- | --- |
| CCCCCn1cnc2c(-c3ccc(OC(F)(F)F)cc3)nc(NCC3CCCCC3)nc21 [Compound 4h, N-(cyclohexylmethyl)-9-pentyl-6-(4-(trifluoromethoxy)phenyl)-9H-purin-2-amine] | < 50 | > 50 | < 50 | > 50 | 19 ± 1.1 | 81 ± 1.1 | 61 ± 1.2 | 39 ± 1.2 | > 50 | > 50 | < 50 | > 50 | 78 to 79 | – | – | – | – | – | – |
| Cc1ccc(CN2CCOCC2)cc1NC(=O)c1ccc(Nc2nc(-c3ccc(OC(F)(F)F)cc3)c3ncn(C)c3n2)cc1 [IV] | – | – | – | – | – | – | – | – | – | – | – | – | – | nanomolar range | – | – | – | – | – |
| Cc1cccc(C)c1NC(=O)c1ccc(Nc2nc(-c3ccc(OC(F)(F)F)cc3)c3ncn(C)c3n2)cc1 [III] | – | – | – | – | – | – | – | – | – | – | – | – | – | nanomolar range | – | – | – | – | – |
| CCCCCn1cnc2c(-c3ccc(OC(F)(F)F)cc3)nc(N3CCN(c4ccncc4)CC3)nc21 [Compound 4r, 9-Pentyl-2-(4-(pyridin-4-yl)piperazin-1-yl)-6-(4-(trifluoromethoxy)phenyl)-9H-purine] | – | 19 ± 0.8 | – | > 50 | – | – | – | 7.7 ± 0.4 | > 50 | > 50 | < 50 | > 50 | 109 to 110 | – | 81 ± 0.8 | < 50 | 92 ± 0.4 | < 50 | more than 80% |
| CCCCCn1cnc2c(-c3ccc(OC(F)(F)F)cc3)nc(NC3CCCCC3)nc21 [Compound 4e, N-cyclohexyl-9-pentyl-6-(4-(trifluoromethoxy)phenyl)-9H-purin-2-amine] | < 50 | > 50 | < 50 | > 50 | > 50 | < 50 | < 50 | 23 ± 0.3 | > 50 | > 50 | < 50 | > 50 | 108 to 110 | – | – | – | – | – | – |
